Assay results from patent US20220105061A1, “COMPOSITIONS AND METHODS FOR TREATING RESPIRATORY INSUFFICIENCY” (The Regents of the University of California, priority 2019, published 2022).
Entries after “also recorded” stand apart in the source; their conditions may differ.

Test system: Serpinh1 Prx1-cre conditional KO mice
Assay: Prenatal 4-PBA treatment of pregnant females in the Serpinh1 Prx1-cre conditional KO (Hsp47-Prx1) lethal osteogenesis imperfecta mouse model
Type: in vivo
Conditions: for perinatal lethality due to respiratory insufficiency: Hsp47-Prx1 model
Source text: Mutations in SERPINH1 (HSP47) cause osteogenesis imperfecta (OI). Patients with mutations in these genes are severely affected by bone fragility and pulmonary dysfunction. Serpinh1 Prx1-cre conditional KO mice were generated. These animals die immediately after birth due to respiratory insufficiency. The Prx1 gene is expressed in lungs' and limbs' mesenchymal lineages, causing phenotypes in both the pulmonary and skeletal system. Right after birth, all affected animals become cyanotic and die.
Animals were treated with 4-PBA. At least 12 pregnant females (SerpinH1−/− crossed with males Serpinh1+/−Prx1 carriers), who were expected to give birth to 25% affected pups (Serpinh1−/−Prx1 positive) were treated with 1 gr/Kg/day of 4-PBA in drinking water since the gestational age of E14 until birth.
Respiratory function was analyzed in treated vs. control animals by cyanotic observations, X-rays, lung floatability test, whole body oxymetry and histology. Multiple dosages were tested: 1, 2 and 5 gr/Kg/day, 1 gr/Kg/day being the minimum dosage to obtain the effect in 100% of individuals. 5 gr/Kg/day was discarded as 2 of 12 treated pups in two independent litters died without presenting the phenotype and showing hematomas. Other pregnancy stages were also tested starting the treatment from E10 to E17.
4-PBA treatment rescue perinatal lethality due to respiratory insufficiency in Hsp47-Prx1 model. A. X-Rays show a dark spot corresponding with air in the lungs in healthy animals (red arrows). […] B. Histological architecture is collapse in mutants (B′) but rescued in 4-PBA treated animals (B″). C. Mutants show cyanotic aspect at birth (C′). This is also rescued in 4-PBA treated animals (C″). D. Oxygen levels are rescued in treated mutants as observed by oxymeter measures right after birth.

O=C(O)CCCc1ccccc1 [4-PBA, 4-phenylbutyric acid]
individuals in which the effect was obtained (1 gr/Kg/day): 100%
survival of pups with the affected genotype born from treated mothers (1 gr/Kg/day in drinking water to pregnant females, E14 until birth, untreated affected pups die immediately after birth): around 24 hours
treated pups that died without presenting the phenotype and showing hematomas (5 gr/Kg/day, two independent litters, dosage discarded): 2 of 12
perinatal lethality due to respiratory insufficiency (prenatal treatment): rescue
perinatal lethality due to respiratory insufficiency (prenatal treatment, listed as 4-phenylbutyric): rescues
lung histological architecture (collapsed in mutants, FIG. 1B): rescued
minimum dosage to obtain the effect in 100% of individuals (dosages tested: 1, 2 and 5 gr/Kg/day): 1 gr/Kg/day
embryo viability (mouse, in vivo): possible decreased embryo viability
unproductive pregnancies of 4 plugged females (mouse, in vivo): two
cyanosis of treated affected animals (prenatal treatment, cyanotic observations at birth): did not become cyanotic; also recorded: rescued
oxygen levels (whole body oxymetry) (prenatal treatment, oxymeter measures right after birth): normal levels of oxygen; also recorded: rescued
air in the lungs on X-rays (treated mutants, FIG. 1A): show air in the lungs
lung function improvement (treatments performed between E13 to E17): observed similarly
